{"source": "patent US12226387B2", "about": "“Compounds for use in cancer cachexia” (priority 2018, dated 2025)", "key": {"[1]": {"assay": "Blood (R)-3-hydroxybutyrate after oral administration of ester"}, "C26 tumour-bearing mice [2]": {"system": "C26 tumour-bearing mice", "assay": "Muscle weights (TA, QUAD, GAS)", "format": "in vivo, Male Balb/c mice", "from_the_text": "Behavioural testing and tissue collection experiment—In a second experiment, 9 mice were included in each experimental group and used for behavioural testing and tissue collection. Mice were euthanized 16 days following PBS or tumour cells inoculation. Twenty-four hours before sacrifice the running wheels were removed to eliminate potential acute effects of exercise on variables measured."}, "C26 tumour-bearing mice [3]": {"system": "C26 tumour-bearing mice", "assay": "Voluntary wheel running activity", "format": "in vivo, Male Balb/c mice", "details": "KETex, wheel running on ketone ester diet, mean±SEM", "method": "Tumour induction and exercise intervention—On day 12, tumour-xenografts were induced by interscapular injection of 5×10^5 murine colon carcinoma C26 cells dissolved in 100 μl of phosphate-buffered saline (PBS). C26 cell line was cultured in DMEM (Thermo Fisher Scientific, 41965-062) supplemented with 10% foetal bovine serum (FBS), 1% glutamine (Sigma G7513) and 1% penicillin and streptomycin. WT mice were injected with an identical volume of PBS. Twenty four hours before tumour inoculation, WR mice (CONex and KETex) received a running wheel to induce voluntary exercise, as previously reported in Coletti D et al;. Substrains of inbred mice differ in their physical activity as a behavior. Sci World J 2013: 1-7, 2013. Each wheel was supplied with a commercial cycling computer (2Cycle, 81488) to record physical activity parameters (i.e. running time, distance, and speed). Body weight, food intake and wheel running parameters—Body weight was measured every 3 days during the food training period. After tumour induction, body weight was measured at 4-day intervals. Food intake and wheel running parameters were measured daily. Statistical analysis—Data are presented as mean±SEM. […] Mice from the WT groups were not included in the 2-way ANOVA model, but were added as a reference. Differences in wheel running activity were assessed using an unpaired t-test. […]"}, "M. soleus": {"system": "M. soleus", "assay": "Ex-vivo muscle contractile properties of M. soleus", "format": "in vivo, Male Balb/c mice", "details": "on average, KETrest & KETex vs CONrest & CONex, p<0.05", "method": "Muscle contractile properties—Ex-vivo muscle contractile properties were assessed as described by Derave W et al; Skeletal muscle properties in a transgenic mouse model for amyotrophic lateral sclerosis: Effects of creatine treatment. Neurobiol Dis 13: 264-272, 2003 and Eijnde B O et al; Effect of muscle creatine content manipulation on contractile properties in mouse muscles. Muscle and Nerve 29: 428-435, 2004.\nMice were anesthetized by an intraperitoneal injection of ketamine-xylazine (10 mg/kg). After dissection of M. soleus and M. extensor digitorum longus (EDL) of both hindlimbs, muscles were mounted vertically on a force transducer (HSE, March-Hugstetten, Germany) and incubated in organ baths containing Krebs-Henseleit solution (118 mM NaCl, 25 mM NaHCO3, 5 mM KCl, 1 mM MgSO4, 1 mM KH2PO4, 2.5 mM CaCl2 and […]). […] Following recovery, resting length (L0) was determined with a micropositioner and an oscilloscope by stimulating the soleus and EDL tetanically for 350 ms at 80 Hz and 120 Hz, respectively, interspersed with 2-min rest intervals. […] Average maximal tension and specific tension (force corrected for muscle cross-sectional area) were calculated for both the twitch and tetanic stimulations. Cross-sectional area was determined by dividing the wet muscle mass by the product of resting muscle length (L0) and the density of mammalian skeletal muscle (1.06 g/cm^3)."}, "C26 tumour-bearing mice [4]": {"system": "C26 tumour-bearing mice", "assay": "Grip strength of forelimbs and hindlimbs", "format": "in vivo, Male Balb/c mice", "details": "day 16, KETrest & KETex vs CONrest & CONex, p<0.05", "method": "Grip strength—Grip strength of both the forelimbs and the hindlimbs was evaluated, at baseline (day 5) and every 4 days starting at tumour induction, by means of a bar and a grid respectively, connected to an isometric force transducer (BIO-GS3 Grip Strength Test, BIOSEB, Pinellas Park, Florida). Mice were lifted by their tail and positioned to grasp the metal bar or grid, and were pulled horizontally until they could no longer hold the grip. Maximal force (g) was registered during five attempts for both the forelimbs and the hindlimbs. Performance was calculated as the average of the three best attempts. Between attempts the mice were returned to their home cage and given a rest period of 3 min."}, "C26 tumour-bearing mice [5]": {"system": "C26 tumour-bearing mice", "assay": "Food intake and body weight of C26 tumour-bearing mice", "format": "in vivo, Male Balb/c mice", "details": "all experimental groups", "method": "General study protocol and dietary interventions—Mice were individually housed and received ad libitum access to standard chow (Ssniff® R/M-H, Soest, Germany) prior to the start of the study. Food intake was registered and body weight was measured daily for 5 days to assess their normal rate of food intake. Following this baseline follow-up period, the mice were matched for body weight and food intake where after they were randomly assigned to five experimental groups: i) C26 tumour-bearing mice at rest on control diet (CONrest), ii) C26-bearing mice at rest on ketone diet (KETrest), iii) C26-bearing mice performing voluntary wheel running (WR) on control diet (CONex), iv) C26-bearing mice performing WR on ketone diet (KETex), and v) healthy mice at rest on control diet (WT). Mice were habituated to their experimental diet by a step-wise change of their food supply.\nDuring the first three days, the mice received both their experimental liquid diet (without the addition of ketones) as well as standard chow. From day 3 to 6, mice received only their experimental liquid diets (i.e. 0% KET or CON diet). […]\nBody weight, food intake and wheel running parameters—Body weight was measured every 3 days during the food training period. After tumour induction, body weight was measured at 4-day intervals. Food intake and wheel running parameters were measured daily."}, "[6]": {"system": "murine colon carcinoma C26 cells", "assay": "Tumour weights, C26 tumour-xenografts", "format": "in vivo, Male Balb/c mice", "details": "16 days after C26 inoculation, KET mice, p<0.05 vs CON, mean±SEM", "method": "Tumour induction and exercise intervention—On day 12, tumour-xenografts were induced by interscapular injection of 5×10^5 murine colon carcinoma C26 cells dissolved in 100 μl of phosphate-buffered saline (PBS). C26 cell line was cultured in DMEM (Thermo Fisher Scientific, 41965-062) supplemented with 10% foetal bovine serum (FBS), 1% glutamine (Sigma G7513) and 1% penicillin and streptomycin. WT mice were injected with an identical volume of PBS. Twenty four hours before tumour inoculation, WR mice (CONex and KETex) received a running wheel to induce voluntary exercise, as previously reported in Coletti D et al;. Substrains of inbred mice differ in their physical activity as a behavior. Sci World J 2013: 1-7, 2013. Each wheel was supplied with a commercial cycling computer (2Cycle, 81488) to record physical activity parameters (i.e. running time, distance, and speed). Behavioural testing and tissue collection experiment—In a second experiment, 9 mice were included in each experimental group and used for behavioural testing and tissue collection. Mice were euthanized 16 days following PBS or tumour cells inoculation. Twenty-four hours before sacrifice the running wheels were removed to eliminate potential acute effects of exercise on variables measured."}, "C26 tumour-bearing mice [7]": {"system": "C26 tumour-bearing mice", "assay": "Survival experiment in C26 tumour-bearing mice on ketone-ester diet", "format": "in vivo, Male Balb/c mice", "details": "ketone groups (KETrest+KETex) vs control groups, 4.5% ketone ester diet, p<0.01", "method": "Animal housing and husbandry—Male Balb/c mice were obtained at 11 weeks of age and housed in polycarbonate cages on a 6:00 am to 6:00 pm light cycle under controlled room temperature (21-23° C.) and humidity (40-60%). Mice were individually housed to allow assessment of individual energy intake and physical activity parameters. Cages contained spruce particles (Lignocel® BK 8/15) bedding, and were changed every three weeks. Enrichment was provided by two cotton pellets, which were replaced during cage changing. Mice received one wooden stick to allow correct wearing off of their teeth while on the liquid diets. Solid food was provided in a recess of the metal wire lid at the top of the cage, whilst liquid diets were provided on a daily basis by means of feeding tubes (Bio-Serv™, catalog #14-726-518). Water was provided by a centralized system with a metal dispenser extending into the cage. All procedures were approved by the Animal Ethics Committee of KU Leuven, Belgium (P093/2017). […]\nGeneral study protocol and dietary interventions—Mice were individually housed and received ad libitum access to standard chow (Ssniff® R/M-H, Soest, Germany) prior to the start of the study. Food intake was registered and body weight was measured daily for 5 days to assess their normal rate of food intake. […]"}, "[8]": {"assay": "Blood metabolite concentrations (βHB, glucose), 1-hr postprandial", "format": "in vivo, Male Balb/c mice", "details": "at all times", "method": "Blood metabolite concentrations-Blood parameters were measured 1-hr postprandial, every 3 days during the food habituation period, and every 4 days from the day of tumour induction. Blood βHB and glucose levels were measured using the Glucomen Lx plus-meter (Menarini Diagnostics, Firenze, Italy) with Lx β-ketone or Lx glucose strips, respectively. The detection limits for p-hydroxybutyrate were 0.1 to 8.0 millimolar (mM). Blood lactate concentrations were assessed using the Lactate-[…] monitoring system (Arkray, Kyoto, Japan). Measurements were performed according to the manufacturer's instructions."}, "[9]": {"system": "pancreatic cancer cachexia", "details": "high amounts of ketone salts; cited from earlier work"}, "[10]": {"details": "in vivo"}}, "note": "Where two headings read alike, the source gives them in different places.", "data": [{"molecule": "C[C@@H](O)CCOC(=O)C[C@@H](C)O", "note": "[KET, (R)-3-hydroxybutyl-(R)-3-hydroxybutyrate]", "values": [{"measurement": "level of uptake in the gut", "setting": "[1]; consumption of a drink", "result": "surprisingly high"}, {"measurement": "circulating levels of (R)-3-hydroxybutyrate in the blood", "setting": "[1]; in vivo", "result": "high"}, {"measurement": "period of raised (R)-3-hydroxybutyrate concentrations compared with ketone salts", "setting": "[1]; in vivo", "result": "longer period"}, {"measurement": "Tibialis anterior (TA) weight", "setting": "C26 tumour-bearing mice [2]; KET, p<0.05 vs CON, mean±SEM", "result": "41.6 ± 2.1", "unit": "mg"}, {"measurement": "gastrocnemius (GAS) weights between the groups", "setting": "C26 tumour-bearing mice [2]; mouse, in vivo", "result": "similar"}, {"measurement": "TA weight higher in KET compared with CON", "setting": "C26 tumour-bearing mice [2]; on average", "result": "~12", "unit": "%"}, {"measurement": "Av distance/day", "setting": "C26 tumour-bearing mice [3]", "result": "19.78 ± 1.36", "unit": "km"}, {"measurement": "Av running speed", "setting": "C26 tumour-bearing mice [3]", "result": "2.94 ± 0.12", "unit": "km/h"}, {"measurement": "Peak twitch force of M. soleus higher than in control groups", "setting": "M. soleus", "result": "~45", "unit": "%"}, {"measurement": "tetanic force of M. soleus higher than in control groups", "setting": "M. soleus", "result": "~29", "unit": "%"}, {"measurement": "forelimb grip strength vs control groups", "setting": "C26 tumour-bearing mice [4]", "result": "higher"}, {"measurement": "hindlimb grip strength vs control groups", "setting": "C26 tumour-bearing mice [4]", "result": "higher"}, {"measurement": "Body weight over time", "setting": "C26 tumour-bearing mice [5]", "result": "similarly decreased"}, {"measurement": "tumour weights", "setting": "[6]", "result": "204 ± 32", "unit": "mg"}, {"measurement": "increase in mean survival time compared to control groups", "setting": "C26 tumour-bearing mice [7]", "result": "+40%"}, {"measurement": "increase in median survival time compared to control groups", "setting": "C26 tumour-bearing mice [7]", "result": "+17%"}, {"measurement": "blood glucose levels compared with CON groups", "setting": "[8]", "result": "lower"}]}, {"molecule": "CC(=O)CC(=O)[O-].[Li+]", "note": "[lithium acetoacetate]", "values": [{"measurement": "muscle and body weight loss", "setting": "[9]", "result": "inhibition"}, {"measurement": "tumour growth", "setting": "[9]", "result": "Reduced"}]}, {"molecule": "CC(O)CC(=O)[O-].[Na+]", "note": "(centres unmarked) [sodium hydroxybutyrate]", "values": [{"measurement": "muscle and body weight loss", "setting": "[9]", "result": "inhibition"}, {"measurement": "tumour growth", "setting": "[9]", "result": "Reduced"}]}, {"molecule": "(R)-3-hydroxybutyrate-glycerol partial ester", "values": [{"measurement": "circulating levels of (R)-3-hydroxybutyrate in the blood", "setting": "[10]", "result": "high"}, {"measurement": "level of uptake in the gut", "setting": "[10]", "result": "surprisingly high"}]}]}
